In brackets after ≈: the same amount, converted by molar mass.
How the values were obtained:
[1] = tested on: Huh-7; assay: Cytotoxicity against human Huh-7 cells assessed as cell growth inhibition and measured after 72 hrs by SRB assay; assay type: functional, cell-based; details: Huh-7, 72 h
[2] = tested on: Mahlavu; assay: Cytotoxicity against human Mahlavu cells assessed as cell growth inhibition and measured after 72 hrs by SRB assay; assay type: functional, cell-based
[3] = tested on: MCF7; assay: Cytotoxicity against human MCF7 cells assessed as cell growth inhibition and measured after 72 hrs by SRB assay; assay type: functional, cell-based; details: MCF7, 72 h
[4] = tested on: MCF7; assay: Cytotoxicity against human MCF7 cells assessed as cell growth inhibition by MTT assay; assay type: functional, cell-based
[5] = tested on: MCF7; assay: Anticancer activity against human MCF7 cells assessed as inhibition of cell proliferation measured after 4 hrs by MTT assay; assay type: functional, cell-based; details: MCF7, 4 h
[6] = tested on: CWR22R; assay: Antiproliferative activity against human 22Rv1 cells assessed as cell growth inhibition by MTT assay; assay type: functional, cell-based
[7] = target: T1, Tyrosine-protein phosphatase non-receptor type 1 (Homo sapiens, UniProt P18031); assay: Inhibition of PTP1B (unknown origin) by SpectraMax 340 microplate reader Analysis
T1 sequence (P18031 whole entry): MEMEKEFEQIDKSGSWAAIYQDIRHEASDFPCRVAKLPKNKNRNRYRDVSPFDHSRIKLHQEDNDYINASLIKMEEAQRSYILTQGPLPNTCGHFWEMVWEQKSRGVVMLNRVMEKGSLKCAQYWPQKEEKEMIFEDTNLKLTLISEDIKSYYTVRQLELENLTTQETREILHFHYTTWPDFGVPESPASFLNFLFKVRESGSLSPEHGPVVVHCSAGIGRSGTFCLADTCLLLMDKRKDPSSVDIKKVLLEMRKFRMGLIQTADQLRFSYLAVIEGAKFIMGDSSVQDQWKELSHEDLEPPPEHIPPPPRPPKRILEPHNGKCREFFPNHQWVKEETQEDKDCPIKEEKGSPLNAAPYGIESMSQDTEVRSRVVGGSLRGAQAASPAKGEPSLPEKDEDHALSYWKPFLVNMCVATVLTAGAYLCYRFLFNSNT

[8] = target: T2, Tyrosine-protein phosphatase non-receptor type 2 (Homo sapiens, UniProt P17706); assay: Inhibition of TCPTP (unknown origin) by SpectraMax 340 microplate reader Analysis
T2 sequence (P17706 whole entry): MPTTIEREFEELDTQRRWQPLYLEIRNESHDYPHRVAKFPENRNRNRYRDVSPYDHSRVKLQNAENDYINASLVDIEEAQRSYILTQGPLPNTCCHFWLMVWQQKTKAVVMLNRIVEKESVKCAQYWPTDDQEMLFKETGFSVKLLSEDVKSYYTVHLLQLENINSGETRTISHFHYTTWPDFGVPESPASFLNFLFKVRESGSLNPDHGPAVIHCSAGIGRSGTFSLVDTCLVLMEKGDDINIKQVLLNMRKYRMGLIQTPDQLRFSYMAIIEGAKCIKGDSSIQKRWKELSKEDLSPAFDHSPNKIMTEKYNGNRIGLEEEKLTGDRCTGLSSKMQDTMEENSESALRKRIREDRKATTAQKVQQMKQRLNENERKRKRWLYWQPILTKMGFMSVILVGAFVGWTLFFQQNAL

[9] = tested on: MCF7; assay: Antiproliferative activity against human MCF7 cells assessed as inhibition of cell growth measured after 48 hrs by SRB assay; assay type: functional, cell-based; details: MCF7, 48 h
[10] = tested on: DU-145; assay: Cytotoxicity against human DU-145 cells assessed as inhibition of cell growth by MTT assay; assay type: functional, cell-based
[11] = target: T3, Aromatase (Homo sapiens, UniProt P11511); assay: Inhibition of human recombinant aromatase expressed in baculovirus insect cell using 7-methoxy-trifluoromethyl coumarin (MFC) as substrate preincubated for 10 mins followed by substrate addition and measured for 30 mins by fluorescence based assay
T3 sequence (P11511 whole entry): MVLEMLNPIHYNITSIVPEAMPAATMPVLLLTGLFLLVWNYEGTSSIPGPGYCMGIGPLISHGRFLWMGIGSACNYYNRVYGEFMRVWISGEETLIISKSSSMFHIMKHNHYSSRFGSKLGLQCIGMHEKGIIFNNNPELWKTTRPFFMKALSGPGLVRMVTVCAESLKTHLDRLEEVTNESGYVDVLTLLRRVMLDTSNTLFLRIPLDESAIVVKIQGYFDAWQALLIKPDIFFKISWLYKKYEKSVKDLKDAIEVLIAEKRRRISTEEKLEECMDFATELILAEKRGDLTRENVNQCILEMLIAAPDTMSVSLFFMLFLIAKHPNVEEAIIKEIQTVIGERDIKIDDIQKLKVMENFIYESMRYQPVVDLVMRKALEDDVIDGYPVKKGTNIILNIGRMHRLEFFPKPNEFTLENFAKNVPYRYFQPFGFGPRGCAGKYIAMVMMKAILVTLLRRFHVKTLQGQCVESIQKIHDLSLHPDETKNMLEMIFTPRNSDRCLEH

FC(F)(F)c1ccc(CN2CCN(c3cc(-c4ccccc4)on3)CC2)cc1
IC50 [1]: 17.1 µM
IC50 [2]: 14.1 µM
IC50 [3]: 19.1 µM

COc1ccc(C2CC(c3c(-c4ccc([N+](=O)[O-])cc4)noc3C)=NN2C(N)=S)cc1 (centres undefined)
IC50 [4]: 4.48 µg/mL

FC(F)(F)c1ccc(CN2CCN(c3cc(-c4ccc(Cl)cc4)on3)CC2)cc1
IC50 [1]: 9.6 µM
IC50 [2]: 26.8 µM
IC50 [3]: 14 µM

O=S(=O)(Nc1ccc(-c2cnoc2)cc1)c1ccc(Cl)cc1
IC50 [3]: 5.7 µM

Nc1nn(Cc2cc(-c3ccc4ccccc4n3)no2)c2nc(-c3cccs3)cc(C(F)(F)F)c12
IC50 [4]: 31.6 µM

COc1ccc(-c2cnoc2-c2ccc(OC)c3ccccc23)cc1
IC50 [5]: 2.03 µM

Cc1noc(C)c1COc1ccc(-c2cc(N3CCN(Cc4ccc(C(F)(F)F)cc4)CC3)no2)cc1
IC50 [1]: 1.2 µM
IC50 [2]: 2.2 µM
IC50 [3]: 1.6 µM

COc1cc(N(C(=O)CSc2nc3ccccc3s2)c2ccncc2)cc(OC)c1OC
IC50 [6]: 5.09 µM

Oc1ccc(-c2cc(N3CCN(Cc4ccc(C(F)(F)F)cc4)CC3)no2)cc1
IC50 [1]: 3.8 µM
IC50 [2]: 7.5 µM
IC50 [3]: 8.3 µM

COc1ccc(-c2oncc2-c2ccc(Cl)cc2)c2ccccc12
IC50 [5]: 5.26 µM

FC(F)(F)c1ccc(CN2CCN(c3cc(-c4ccc(C(F)(F)F)cc4)on3)CC2)cc1
IC50 [1]: 19.9 µM
IC50 [2]: > 40 µM
IC50 [3]: 9.5 µM

O=C(O)c1cccc(/C=C/c2ccc(Oc3cnoc3-c3ccc(Cl)c(Cl)c3)cc2)c1
IC50 [7]: 0.91 µM
IC50 [8]: 3.78 µM

Cc1onc(-c2ccc([N+](=O)[O-])cc2)c1C1=NN(C(N)=S)C(c2cccs2)C1 (centres undefined)
IC50 [4]: 2.25 µg/mL

COc1ccc(-c2cc(-c3c[nH]c4ccccc34)on2)cc1
IC50 [9]: 2.55 µM

Cc1onc(-c2ccc([N+](=O)[O-])cc2)c1C1=NN(C(N)=S)C(c2ccc(Cl)cc2)C1 (centres undefined)
IC50 [4]: 5.42 µg/mL

CC(=O)O[C@@]12CO[C@@H]1C[C@H](O)[C@@]1(C)C(=O)[C@H](O)C3=C(C)[C@@H](OC(=O)[C@H](O)[C@@H](NC(=O)OC(C)(C)C)c4ccccc4)C[C@@](O)([C@@H](OC(=O)c4ccccc4)[C@H]21)C3(C)C [DOCETAXEL ANHYDROUS]
IC50 [10]: 5 µg/mL (≈ 6.19 µM)

C#Cc1cccc(Nc2ncnc3cc(OCCOC)c(OCCOC)cc23)c1 [ERLOTINIB]
IC50 [3]: 4.1 µM

O=c1[nH]cc(F)c(=O)[nH]1 [FLUOROURACIL]
IC50 [11]: 0.63 µM
IC50 [6]: 18.3 µM
IC50 [4]: 1.7 µM

C[C@H](CCC(=O)O)[C@H]1CC[C@H]2[C@@H]3CC[C@@H]4C[C@H](O)CC[C@]4(C)[C@H]3CC[C@]12C [LITHOCHOLIC ACID]
IC50 [7]: 2.71 µM
IC50 [8]: 6.12 µM

CC(=O)O[C@H]1C(=O)[C@@]2(C)[C@H]([C@H](OC(=O)c3ccccc3)[C@]3(O)C[C@H](OC(=O)[C@H](O)[C@@H](NC(=O)c4ccccc4)c4ccccc4)C(C)=C1C3(C)C)[C@]1(OC(C)=O)CO[C@@H]1C[C@@H]2O [PACLITAXEL]
IC50 [4]: 0.015 µg/mL
